Earlier results in US8257742B2, “Bisphosphonates for treating endometriosis” (Yissum Research Development Company of the Hebrew …, priority 2005, dated 2012).

Tested on: endometriosis explants
Details: in vivo

C=CCn1c(=O)n([C@@H]2O[C@H](CO)[C@@H](O)[C@H]2O)c2nc(N)[nH]c(=O)c21 [loxoribine, Loxoribine]
regression of endometriosis explants: Regression of endometriosis explants was observed
